The values below come from ChEMBL document CHEMBL1201862, “PubChem BioAssay data set” (2004).

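Assay format: 96-well plates, 48-hour exposure. Here, GI50 denotes the concentration required for 50% inhibition of growth.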 Active and inactive are the calls of the source. Cut-off read from the data, not from the text of the source: active = GI50 up to about 1.1 µM and inactive = higher.

Assay in all cases: growth of human tumour cells (NCI), 48 h
Assay [1] deals with SR.
Assay [2] relates to SF-295.
The subject of assay [3] is NCI-H460.
Assay [4] relates to OVCAR-4.
Assay [5] has as its system BT-549.
The subject of assay [6] is HT-29.
Assay [7] relates to SF-268.
Assay [8] concerns NCI-H23.
For assay [9], the system named is TK-10.
In assay [10] the test system is NCI/ADR-RES.
The test system of assay [11] is SNB-75.
In assay [12] the test system is MDA-MB-231.
Assay [13] relates to UACC-62.
The test system of assay [14] is Malme-3M.
The test system of assay [15] is SK-MEL-28.
Assay [16] relates to SK-MEL-5.
Assay [17] concerns OVCAR-3.
The test system of assay [18] is SK-MEL-2.
The subject of assay [19] is DU-145.
For assay [20], the system named is CAKI-1.

Regarding `CC(=O)c1c2c(cc3c1CC1(C3)Cc3ccc4c(c3C1=O)CCC4)CCC2` (stereo not given), the GI50 in [1] was 4.61 µM (inactive); in [2] it was 93.3 µM (inactive); in assay [3] it was 38.6 µM (inactive); in assay [4], 23.9 µM (inactive); in assay [5], 62.4 µM (inactive); in assay [6], 11.8 µM (inactive). The GI50 in assay [7] was > 100 µM (inactive); in [8] it was 34.9 µM (inactive); in assay [9], 11.1 µM (inactive); in assay [10], 2.07 µM (inactive); in assay [11] it was 16.9 µM (inactive); in assay [12], 24.7 µM (inactive). Moreover, the GI50 in [13] is 44.5 µM (inactive); in [14], 30.6 µM (inactive); in assay [15], 57.1 µM (inactive); in [16] it was 13.4 µM (inactive); in assay [17], > 100 µM (inactive); in assay [18] it was 34.8 µM (inactive). In addition, the values for the GI50 in [19] and in assay [20] were 99.3 µM (inactive) and 14.9 µM (inactive), respectively.
For `S=C(N/N=C(/c1ccccc1)c1ccccn1)N(Cc1ccccn1)Cc1ccccn1`, the GI50 in assay [1] is 0.906 µM (active); in [2] it was 0.367 µM (active); in assay [3], 0.116 µM (active); in assay [4], 0.507 µM (active); in [5] it was 0.207 µM (active); in [6], < 0.01 µM (active). In addition, the GI50 in assay [7] was 0.196 µM (active); in [8] it was 0.108 µM (active); in assay [9] it was 0.236 µM (active); in assay [10], 0.0838 µM (active); in assay [11], 0.708 µM (active); in assay [12], < 0.0121 µM (active). Besides, the GI50 in assay [13] is 0.338 µM (active); in [14], 0.0655 µM (active); in assay [15] it was 1.05 µM (active); in assay [16], 0.358 µM (active); in assay [17] it was 0.183 µM (active); in assay [18] it was 1.28 µM (inactive). Further, the GI50 in assay [19] was 0.564 µM (active); in assay [20] it was 0.0822 µM (active).
Consider `CCOC(=O)/C=C(/C(=O)OCC)n1cc(C)c(=O)n(/C(=C/C(=O)OCC)C(=O)OCC)c1=O`, for which the GI50 in assay [1] was 1.89 µM (inactive); in assay [2] it was 18.7 µM (inactive); in assay [3], 16.1 µM (inactive); in assay [4], 8.47 µM (inactive); in assay [5] it was 5.79 µM (inactive); in [6] it was 2.69 µM (inactive). The GI50 in assay [7] is 8.45 µM (inactive); in [8], 4.03 µM (inactive); in assay [9], 2.08 µM (inactive); in assay [10] it was 8.36 µM (inactive); in [11], 9.73 µM (inactive); in assay [12] it was 3.4 µM (inactive). In addition, the GI50 is 5.97 µM (inactive) in assay [13]; 1.85 µM (inactive) in [14]; 2.19 µM (inactive) in [15]; 7.31 µM (inactive) in [16]; 2.79 µM (inactive) in [17]; 14.7 µM (inactive) in assay [18]. The GI50 in [19] was 13.7 µM (inactive); in assay [20], 0.887 µM (active).
Consider `CCOC(=O)C1=CN(Cc2ccccc2)C2ON=C(c3ccc(Cl)cc3)C2C1` (stereo not given), for which the GI50 in assay [1] was > 23.9 µM (inactive); in assay [2] it was 45.6 µM (inactive); in assay [3], 40.5 µM (inactive); in assay [4], 42 µM (inactive); in assay [5], 32.4 µM (inactive); in assay [6], 48.6 µM (inactive). The GI50 in assay [7] was > 42.1 µM (inactive); in [8] it was 35 µM (inactive); in assay [9], > 60.5 µM (inactive); in [10] it was > 54.6 µM (inactive); in [11], 44.3 µM (inactive); in assay [12], 10.6 µM (inactive). The GI50 in assay [13] is 17.1 µM (inactive); in assay [14], > 55 µM (inactive); in assay [15] it was > 56.2 µM (inactive); in assay [16] it was 16.5 µM (inactive); in [17], 39.3 µM (inactive); in [18], 15.2 µM (inactive). For the same compound, the figures for the GI50 in [19] and in assay [20] were > 55 µM (inactive) and > 52.6 µM (inactive), respectively.
As to `CN(C)CCNC(=O)c1cccc2nc3c(C(=O)NCCN(C)C)cccc3nc12`, the GI50 is 0.368 µM (active) in assay [1]; 1.31 µM (inactive) in assay [2]; 0.82 µM (active) in assay [3]; 0.589 µM (active) in assay [4]; 3.18 µM (inactive) in assay [5]; 0.321 µM (active) in assay [6]. Further, the GI50 in assay [7] is 0.782 µM (active); in [8] it was 1.19 µM (inactive); in assay [9], 1.86 µM (inactive); in [10] it was 5.15 µM (inactive); in [11], 2.63 µM (inactive); in assay [12] it was 1.14 µM (inactive). Besides, the GI50 was 2.9 µM (inactive) in assay [13]; 1.77 µM (inactive) in assay [14]; 2.03 µM (inactive) in [15]; 1.56 µM (inactive) in assay [16]; 1.7 µM (inactive) in assay [17]; 1.77 µM (inactive) in [18]. Besides, the GI50 in [19] was 1.37 µM (inactive); in assay [20], 2.14 µM (inactive).
With `CCOC(=O)/C=C(/C(=O)OCC)n1cc(Cl)c(=O)n(CC(=O)OCC)c1=O`, the GI50 is 5.24 µM (inactive) in assay [1]; > 25 µM (inactive) in assay [2]; 9.02 µM (inactive) in assay [3]; 6.03 µM (inactive) in [4]; 5.92 µM (inactive) in assay [5]; 4.56 µM (inactive) in assay [6]. Besides, the GI50 in assay [7] was 7.05 µM (inactive); in assay [8], 5.74 µM (inactive); in [9], 4.14 µM (inactive); in [10] it was 8.95 µM (inactive); in [11], 5.13 µM (inactive); in assay [12] it was 5.71 µM (inactive). The GI50 in assay [13] is 4.53 µM (inactive); in [14], 6.11 µM (inactive); in assay [15] it was 5.02 µM (inactive); in [16] it was 5.66 µM (inactive); in [17], 5.98 µM (inactive); in assay [18], 4.84 µM (inactive). The GI50 in assay [19] is 4.61 µM (inactive); in assay [20] it was 3.94 µM (inactive).
`Cn1c(C(O)C2(c3cccnc3)SCCCS2)cc2ccccc21` (stereo not given): the GI50 is 55.5 µM (inactive) in assay [1]; 56.9 µM (inactive) in assay [2]; 99.3 µM (inactive) in [3]; 67.8 µM (inactive) in [4]; 44.5 µM (inactive) in [5]; > 100 µM (inactive) in assay [6]. Also, the GI50 in assay [7] is > 100 µM (inactive); in [8], 47.8 µM (inactive); in assay [9], > 100 µM (inactive); in [10] it was > 100 µM (inactive); in assay [11], 73.3 µM (inactive); in assay [12] it was > 100 µM (inactive). For the same compound, the GI50 in assay [13] was 88.3 µM (inactive); in [14], > 100 µM (inactive); in assay [15], > 100 µM (inactive); in assay [16], 37.6 µM (inactive); in assay [17], 36.6 µM (inactive); in [18] it was > 100 µM (inactive). For the same compound, the GI50 in assay [19] and in [20] was > 100 µM (inactive) throughout.
`CC(C)(C)C1=CC(=C2C=Cc3ccccc3O2)C=C(C(C)(C)C)C1=O`: the GI50 was 1.85 µM (inactive) in assay [1]; 5.33 µM (inactive) in [2]; 1.6 µM (inactive) in assay [3]; 2.41 µM (inactive) in [4]; 6.59 µM (inactive) in [5]; 3.76 µM (inactive) in assay [6]. Also, the GI50 in assay [7] is 5.55 µM (inactive); in assay [8] it was 4.56 µM (inactive); in assay [9] it was 3.87 µM (inactive); in [10], 3.81 µM (inactive); in assay [11], 5.55 µM (inactive); in [12], 3.41 µM (inactive). Also, the GI50 in assay [13] is 2.56 µM (inactive); in assay [14] it was 3.81 µM (inactive); in [15] it was 6.25 µM (inactive); in assay [16], 3.81 µM (inactive); in assay [17] it was 2.23 µM (inactive); in [18], 2.13 µM (inactive). The GI50 in [19] is 4.71 µM (inactive); in assay [20], 3.07 µM (inactive).
Take `O=C1C=CC(=O)C(N(CCO)CCO)=C1.O=C1C=CC2(O)OCCN(CCO)C2=C1`: the GI50 in assay [1] is 34.8 µM (inactive); in assay [2], > 100 µM (inactive); in assay [3], > 100 µM (inactive); in assay [4], > 100 µM (inactive); in assay [5], > 100 µM (inactive); in assay [6], > 100 µM (inactive). Moreover, the GI50 in [7], in assay [8], in assay [9], in [10], in assay [11] and in [12] was > 100 µM (inactive) in each case. The GI50 in assay [13], in [14], in assay [15], in [16], in assay [17] and in assay [18] was > 100 µM (inactive) throughout. The GI50 in assay [19] and in assay [20] was > 100 µM (inactive) in each case.
`CC[C@@]1(O)C(=O)OCc2c1cc1n(c2=O)Cc2c-1nc1ccccc1c2/C=N/NC(=O)C[N+](C)(C)C`: the GI50 was 0.0391 µM (active) in assay [1]; 0.56 µM (active) in [2]; 0.15 µM (active) in assay [3]; 41.2 µM (inactive) in assay [4]; 15.4 µM (inactive) in assay [5]; 13.2 µM (inactive) in assay [6]. Besides, the GI50 in [7] is 0.45 µM (active); in assay [8], 0.495 µM (active); in [9], > 80.2 µM (inactive); in assay [10], 1.65 µM (inactive); in [11], 0.525 µM (active); in [12], > 100 µM (inactive). Besides, the GI50 in [13] is 0.121 µM (active); in assay [14], 16.7 µM (inactive); in assay [15] it was 15.4 µM (inactive); in assay [16] it was 1.5 µM (inactive); in assay [17] it was 38.3 µM (inactive); in assay [18] it was > 83.6 µM (inactive). Also, the GI50 in [19] is 0.458 µM (active); in assay [20] it was 0.578 µM (active).
